Assay [1] has as its system middle meningeal artery (MMA) dilation evoked by electrical field stimulation. The assay can be described thus: Dural artery (closed cranial window) assay. The class given is in vivo, rat. On the procedure:
Closed Cranial Window Model: The purpose of this experiment was to determine the acute effect of anti-CGRP antagonist antibodies and compare it with the acute effect of the CGRP receptor antagonist BIBN4096BS. Experiments were carried out as previously described (Williamson et al., Cephalalgia 17(4):518-24 (1997)) with the following modifications. Sprague Dawley rats (300-400 g) were anesthetized with 70 mg/kg i.p. pentobarbital. Anesthesia was maintained with 20 mg/kg/hr i.v. pentobarbital. Rats were cannulated through the jugular vein for delivery of all drugs. Blood pressure was monitored with a probe (mikro-tip catheter, Millar Instruments) threaded through the femoral artery into the abdominal aorta. The rats were tracheotomized and breathing rate was maintained at 75 breaths per minute at a volume of 3.5 mL. After fixating the head in a stereotactic instrument and removing the scalp, a 2×6 mm window in the left parietal area just lateral to the sagittal suture was made by thinning the bone with a dental drill. Using a micromanipulator, a platinum bipolar electrode was lowered onto the surface and covered with heavy mineral oil. Lateral to the electrode window another window of 5×6 mm was created and filled with heavy mineral oil through which the diameter of a branch of the middle meningeal artery (MMA) was continuously monitored with a CCD camera and a video dimension analyzer (Living Systems). The rats were rested for no less than 45 minutes after the preparation. A baseline response to electrical stimulation was established (15 V, 10 hz, 0.5 ms pulses, 30 seconds) and then rats were dosed i.v. with experimental compound (10 mg/kg mu7E9, 300 μg/kg BIBN4096BS or PBS 0.01% Tween 20). Additional electrical stimulations were done at 5 (BIBN4096BS), 30, 60, 90 and 120 minutes after dosing. All data was recorded using chart software (ADInstruments).
The purpose of this experiment was to determine if the anti CGRP antibody could still block electrically stimulated MMA dilation 7 days after dosing. Preparation of the rats was identical to the above described acute experiment (Example 6) with the following exceptions. […] It was impossible to establish a baseline dilation response to electrical stimulation prior to dosing as in the acute experiment so the antibody groups were compared to dilation of the MMA in a vehicle (PBS, 0.01% Tween 20) dosed control group. After the rats were allowed to rest for no less than 45 minutes the dura was electrically stimulated at 30 minute intervals. Stimulations were at 2.5V, 5V, 10V, 15V and 20V, all at 10 Hz, 0.5 ms pulses for 30 seconds.

Assay [2] relates to chronic migraine. As to the kind of experiment: Clinical study of antibody G1 in chronic migraine.
Assay [3] deals with CGRP activity (skin blood flow after saphenous nerve stimulation). As to the kind of experiment: Skin vasodilatation induced by stimulation of rat saphenous nerve. The class given is in vivo. The note with it: for blood flow increase stimulated by electronic pulses on saphenous nerve: compared to vehicle. Here is the method: To test antagonist activity of anti-CGRP antibodies, effect of the antibodies on skin vasodilatation by stimulation of rat saphenous nerve was tested using a rat model described previously. Escott et al., Br. J. Pharmacol. 110:772-776, 1993. In this rat model, electrical stimulation of saphenous nerve induces release of CGRP from nerve endings, resulting in an increase in skin blood flow. Blood flow in the foot skin of male Sprague Dawley rats (170-300 g, from Charles River Hollister) was measured after saphenous nerve stimulation. Rats were maintained under anesthesia with 2% isoflurane. Bretylium tosylate (30 mg/kg, administered i.v.) was given at the beginning of the experiment to minimize vasoconstriction due to the concomitant stimulation of sympathetic fibers of the saphenous nerve. Body temperature was maintained at 37° C. by the use of a rectal probe thermostatically connected to a temperature controlled heating pad. Compounds including antibodies, positive control (CGRP 8-37), and vehicle (PBS, 0.01% Tween 20) were given intravenously through the right femoral vein, except for the experiment shown in FIG. 3, the test compound and the control were injected through tail vein, and for experiments shown in FIGS. 2A and 2B, antibodies 4901 and 7D11 were injected intraperitoneally (IP). Positive control compound CGRP 8-37 (vasodilatation antagonist), due to its short half-life, was given 3-5 min before nerve stimulation at 400 nmol/kg (200 μl). Tan et al., Clin. Sci. 89:656-73, 1995. The antibodies were given in different doses (1 mg/kg, 2.5 mg/kg, 5 mg/kg, 10 mg/kg, and 25 mg/kg).
For experiments shown in FIGS. 2A and 2B, antibody 4901 (25 mg/kg), antibody 7D11 (25 mg/kg), or vehicle control (PBS with 0.01% Tween 20) was administered intraperitoneally (IP) 72 hours before the electrical pulse stimulation. For experiment shown in FIG. 3, antibody 4901 (1 mg/kg, 2.5 mg/kg, 5 mg/kg, or 25 mg/kg) or vehicle control (PBS with 0.01% Tween 20) was administered intravenously 24 hours before the electrical pulse stimulation. After administration of the antibodies or vehicle control, the saphenous nerve of the right hindlimb was exposed surgically, cut proximally and covered with plastic wrap to prevent drying. A laser Doppler probe was placed over the medio-dorsal side of the hindpaw skin, which is the region innervated by the saphenous nerve. Skin blood flow, measured as blood cell flux, was monitored with a laser Doppler flow meter. When a stable base-line flux (less than 5% variation) was established for at least 5 min, the nerve was placed over platinum bipolar electrodes and electrically stimulated with 60 pulses (2 Hz, 10 V, 1 ms, for 30 sec) and then again 20 minutes later. Cumulative change in skin blood flow was estimated by the area under the flux-time curve (AUC, which is equal to change in flux multiplied by change in time) for each flux response to electrical pulse stimulation. The average of the blood flow response to the two stimulations was taken. Animals were kept under anesthesia for a period of one to three hours.
For experiments shown in FIGS. 4A and 4B, saphenous nerve was exposed surgically before antibody administration. The saphenous nerve of the right hindlimb was exposed surgically, cut proximally and covered with plastic wrap to prevent drying. […] Skin blood flow, measured as blood cell flux, was monitored with a laser Doppler flow meter. […]

[4] abbreviates: 900 mg group (n = 85), Change from Baseline to Month 1.
[5] abbreviates: 900 mg group (n = 85), Change from Baseline to Month 2.
Setting [6] is: 900 mg group (n = 85), Change from Baseline to Month 3.
The mark [7] stands for this setting: 675/225 mg group (n = 87), Change from Baseline to Month 1.
Where [8] appears, read: 675/225 mg group (n = 87), Change from Baseline to Month 2.
Setting [9] is: 675/225 mg group (n = 87), Change from Baseline to Month 3.

The values that follow come from US10556945B2, “Antagonist antibodies directed against calcitonin gene-related peptide and methods using same” (Teva Pharmaceuticals International GmbH, priority 2014, dated 2020).

Marks after values point to notes of the source that are not given here. Some results are limits rather than exact numbers.

Regarding `NCCCC[C@H](NC(=O)[C@@H](Cc1cc(Br)c(O)c(Br)c1)NC(=O)N1CCC(N2Cc3ccccc3NC2=O)CC1)C(=O)N1CCN(c2ccncc2)CC1` [BIBN4096BS], in assay [1] (300 μg/kg i.v.), the “time after dosing within which MMA dilation is blocked” value is not above 5 min and the “time by which the effect has completely disappeared” value is not above 90 min. Besides, the “MMA dilation evoked by electrical field stimulation” value in assay [1] (300 μg/kg i.v., acute) was “blocks”.
Take “G1: anti-CGRP antagonist antibody produced by expression vectors ATCC PTA-6867 and PTA-6866; VH SEQ ID NO:1, VL SEQ ID NO:2; modified human IgG2 [Clone G1]”: the “Days using acute medications, change from baseline, mean (SE)” value is −5.4 (0.7)** Days in assay [2] (setting [4]); −5.8 (0.7) Days in assay [2] (setting [5]); −5.3 (0.7)* Days in assay [2] (setting [7]); −6.6 (0.7)* Days in assay [2] (setting [8]); −6.6 (0.7)* Days in assay [2] (setting [9]). For the same compound, the “Headache hours, change from baseline, mean (SE)” value is recorded as −56.8 (7.3)^+ hours in assay [2] (setting [4]); −66.2 (8.1)^+ hours in assay [2] (setting [5]); −67.5 (8.6)** hours in assay [2] (setting [6]); −44.1 (7.3)** hours in assay [2] (setting [7]); −58.3 (8.1)* hours in assay [2] (setting [8]); −59.8 (8.6)* hours in assay [2] (setting [9]). For the same compound, the “M/S Headache Days (days with moderate to severe headaches), change from baseline, mean (SE)” value in assay [2] (setting [4]) is on record as −5.7 (0.6)^+ Days; in assay [2] (setting [5]) it was −5.9 (0.6) Days; in assay [2] (setting [7]) it was −4.9 (0.6)** Days; in assay [2] (setting [8]) it was −5.8 (0.6) Days; in assay [2] (setting [9]) it was −6.0 (0.7)* Days. Moreover, the “Migraine Days, change from baseline, mean (SE)” value in assay [2] (setting [4]) is −6.3 (0.7)^+ Days; in assay [2] (setting [5]), −6.7 (0.7)^ Days; in assay [2] (setting [6]), −7.1 (0.8)* Days; in assay [2] (setting [8]), −6.6 (0.7) Days; in assay [2] (setting [9]), −6.8 (0.8) Days. The “Subjects with >50% Decrease in M/S Headache days” value in assay [2] (900 mg group, Month 1) is listed as 47 (55%)^+ N (%); in assay [2] (900 mg group, Month 2) it was 47 (55%)* N (%); in assay [2] (900 mg group, Month 3), 47 (55%)^+ N (%); in assay [2] (675/225 mg group, Month 1), 36 (41%)* N (%); in assay [2] (675/225 mg group, Month 2), 42 (48%) N (%); in assay [2] (675/225 mg group, Month 3) it was 46 (53%)** N (%). The “Subjects with >75% Decrease in M/S Headache days” value is recorded as 28 (33%)^+ N (%) in assay [2] (900 mg group, Month 1); 26 (31%) N (%) in assay [2] (900 mg group, Month 2); 27 (32%)* N (%) in assay [2] (900 mg group, Month 3); 19 (22%)** N (%) in assay [2] (675/225 mg group, Month 1); 26 (30%)* N (%) in assay [2] (675/225 mg group, Month 2); 25 (29%)* N (%) in assay [2] (675/225 mg group, Month 3). Further, the “Average number of headache hours at visits 2, 3 and 4” value in assay [2] (both treatment groups vs placebo) is “significant decrease”. Also, in assay [2] (e.g. topiramate and amitriptyline or propranolol, relative to a placebo group), the “number of headache hours in subjects using prevention medications” value was “significant decrease”. The “blood flow increase stimulated by electronic pulses on saphenous nerve” value in assay [3] (1 mg/kg i.v., stimulation at 90 min) is given as “significantly inhibited”; in assay [3] (10 mg/kg i.v., stimulation at 90 and 120 minutes) it was “significantly inhibited”. Further, the “blood flow increases in the dorso-medial hindpaw skin evoked by saphenous nerve stimulation” value in assay [3] (10 mg/kg or 3 mg/kg i.v., 24 hours or 7 days prior to stimulation, vs vehicle) is given as “significantly inhibited”. Also, the “EC50 at 24 hours (dose required for 50% maximal effect)” value in assay [3] (i.v. 24 hours before stimulation, curve fit) stood at 1.3 mg/kg. In assay [3] (i.v. 7 days before stimulation, curve fit), the “EC50 at 7 days (dose required for 50% maximal effect)” value turned out to be 0.8 mg/kg. For the same compound, the “MMA dilation evoked by electrical stimulation” value in assay [1] (10 mg/kg and 3 mg/kg i.v., 7 days prior, 10 to 20 volts, vs vehicle) is recorded as “significantly blocked”.
